Test results: PubChem BioAssay AID2060609 (Molecular Pharmacology Branch, DTP, NCI, 2025)
Where “and” joins values, the source holds several entries; their conditions need not be identical. Identical values can stand only once.

Test system: 855422-203-R-J1-PDC complex spheroids, viability
Experiment: Anticancer human tumor 855422-203-R-J1-PDC patient-derived bladder carcinoma cell line growth inhibition [CLK]
Conditions: for viability, T/C: stronger effect = lower value
Summary of the method: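 Multi-cell-type spheroids combined patient-derived tumor cells with HUVEC endothelial cells and human mesenchymal stem cells. Paired agents were dosed in half-log steps down from about clinical Cmax, or from 10 microM where Cmax was unknown.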
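Further: spheroids exposed to drugs for seven days before readout.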
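Wherever viability, T/C is given: 100% = DMSO vehicle control wells.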

## C=C(F)C(=O)N1CCN(c2nc(OCC3CCCN3C)nc3c2CCN(c2cccc4cccc(Cl)c24)C3)CC1CC#N (stereo not given) + CN1CCN(c2cc(C(=O)Nc3cc4cc(-c5cnn(C)c5)ccc4cn3)ccn2)CC1
Curve of first compound, second compound 0.0316 µM
  IC50: 2.46 µM
Curve of first compound, second compound 0.1 µM
  IC50: 1.98 µM
Curve of first compound, second compound 0.316 µM
  IC50: < 0.0316 µM
Curve of first compound, second compound 1 µM
  IC50: < 0.0316 µM
Curve of first compound, second compound 3.16 µM
  IC50: < 0.0316 µM
Curve of first compound, second compound 10 µM
  IC50: < 0.0316 µM
Second compound 0.0316 µM, first compound 0.0316 µM
  viability, T/C: 108%
Second compound 0.0316 µM, first compound 0.1 µM
  viability, T/C: 110%
Second compound 0.0316 µM, first compound 0.316 µM
  viability, T/C: 122%
Second compound 0.0316 µM, first compound 1 µM
  viability, T/C: 115%
Second compound 0.0316 µM, first compound 3.16 µM
  viability, T/C: 32%
Second compound 0.0316 µM, first compound 10 µM
  viability, T/C: 0.22%
Second compound 0.1 µM, first compound 0.0316 µM
  viability, T/C: 89.1%
Second compound 0.1 µM, first compound 0.1 µM
  viability, T/C: 86%
Second compound 0.1 µM, first compound 0.316 µM
  viability, T/C: 87.3%
Second compound 0.1 µM, first compound 1 µM
  viability, T/C: 95.1%
Second compound 0.1 µM, first compound 3.16 µM
  viability, T/C: 22.8%
Second compound 0.1 µM, first compound 10 µM
  viability, T/C: 0.8%
Second compound 0.316 µM, first compound 0.0316 µM
  viability, T/C: 14.2%
Second compound 0.316 µM, first compound 0.1 µM
  viability, T/C: 14.4%
Second compound 0.316 µM, first compound 0.316 µM
  viability, T/C: 14.8%
Second compound 0.316 µM, first compound 1 µM
  viability, T/C: 14.6%
Second compound 0.316 µM, first compound 3.16 µM
  viability, T/C: 4.45%
Second compound 0.316 µM, first compound 10 µM
  viability, T/C: 0.07%
Second compound 1 µM, first compound 0.0316 µM
  viability, T/C: 0.29%
Second compound 1 µM, first compound 0.1 µM
  viability, T/C: 0.34%
Second compound 1 µM, first compound 0.316 µM
  viability, T/C: 0.28%
Second compound 1 µM, first compound 1 µM
  viability, T/C: 0.26%
Second compound 1 µM, first compound 3.16 µM
  viability, T/C: 0.12%
Second compound 1 µM, first compound 10 µM
  viability, T/C: 1.08%
Second compound 3.16 µM, first compound 0.0316 µM
  viability, T/C: 0.68%
Second compound 3.16 µM, first compound 0.1 µM
  viability, T/C: 0.91%
Second compound 3.16 µM, first compound 0.316 µM
  viability, T/C: 0.57%
Second compound 3.16 µM, first compound 1 µM
  viability, T/C: 0.77%
Second compound 3.16 µM, first compound 3.16 µM
  viability, T/C: 1.08%
Second compound 3.16 µM, first compound 10 µM
  viability, T/C: 0.11%
Second compound 10 µM, first compound 0.0316 µM
  viability, T/C: 0.54%
Second compound 10 µM, first compound 0.1 µM
  viability, T/C: 0.51%
Second compound 10 µM, first compound 0.316 µM
  viability, T/C: 0.41%
Second compound 10 µM, first compound 1 µM
  viability, T/C: 0.42%
Second compound 10 µM, first compound 3.16 µM
  viability, T/C: 0.61%
Second compound 10 µM, first compound 10 µM
  viability, T/C: 0.22%

## Nc1ccn(C2OC(CO)C(O)C2(F)F)c(=O)n1 (stereo not given)
Compound 0.0316 µM
  viability, T/C: 26.9% and 25.7%
Compound 0.1 µM
  viability, T/C: 16.5% and 10.8%
Compound 0.316 µM
  viability, T/C: 17.8% and 15.2%
Compound 1 µM
  viability, T/C: 15.7% and 11.5%
Compound 3.16 µM
  viability, T/C: 11.1% and 9.45%
Compound 10 µM
  viability, T/C: 7.67% and 6.64%
Curve of compound
  IC50: < 0.0316 µM

## CC(Nc1ccc2c(c1)OCCn1cc(N3C(=O)OCC3C(F)F)nc1-2)C(N)=O (stereo not given)
Compound 0.0316 µM
  viability, T/C: 94.9% and 74%
Compound 0.1 µM
  viability, T/C: 71% and 67.6%
Compound 0.316 µM
  viability, T/C: 50.9% and 45.7%
Compound 1 µM
  viability, T/C: 28.4% and 20.6%
Compound 3.16 µM
  viability, T/C: 21.2% and 20.3%
Compound 10 µM
  viability, T/C: 16.1% and 11.5%
Curve of compound
  IC50: 0.294 µM and 0.249 µM

## CCN1CCN(Cc2ccc(Nc3ncc(F)c(-c4cc(F)c5nc(C)n(C(C)C)c5c4)n3)nc2)CC1
Compound 0.00316 µM
  viability, T/C: 99.2% and 123%
Compound 0.01 µM
  viability, T/C: 85.2% and 96.2%
Compound 0.0316 µM
  viability, T/C: 79.4% and 92.5%
Compound 0.1 µM
  viability, T/C: 55.2% and 50%
Compound 0.316 µM
  viability, T/C: 50.4% and 57.6%
Compound 1 µM
  viability, T/C: 62.8% and 49.6%
Curve of compound
  IC50: > 1 µM and 0.778 µM

## CC1COCCN1c1cc(C2(S(C)(=N)=O)CC2)nc(-c2ccnc3[nH]ccc23)n1 (stereo not given)
Compound 0.0316 µM
  viability, T/C: 127% and 114%
Compound 0.1 µM
  viability, T/C: 108% and 101%
Compound 0.316 µM
  viability, T/C: 115% and 113%
Compound 1 µM
  viability, T/C: 93.2% and 103%
Compound 3.16 µM
  viability, T/C: 32.1% and 23.6%
Compound 10 µM
  viability, T/C: 11.2% and 8.31%
Curve of compound
  IC50: 2.26 µM and 2.16 µM
